Series [1] is described as follows: Pharmacokinetics of dextrorphan or dextrorphan PABA carbamate, monkeys (Example 47). In kind it is in vivo, cynomolgus monkeys. The settings on record: for half-life: read-out: t½ (converted).
Procedure: (§1) Blood samples were taken at various times after administration, and submitted to analysis for the parent drug and prodrug using a validated LC-MS-MS assay. Pharmacokinetic parameters derived from the plasma analytical data were determined using Win Nonlin.
The nature of series [2]: Pharmacokinetics of dextrorphan or dextrorphan PABA carbamate, dogs (Example 48). The format is in vivo, beagle dogs. How it is done:
Data were normalized to 1 mg/kg

Series [3] in a line: Pharmacokinetics of levorphanol or levorphanol PABA carbamate, dogs (Example 46). The format is in vivo, Beagle dogs. The settings on record: for AUC / Cmax / Tmax / half-life / T>50%Cmax: levorphanol in plasma after oral levorphanol, 5 mg free base equivalents/kg, female beagle dog; for AUC: AUClast; for half-life / T>50%Cmax: maximum of 30% extrapolation allowed; for half-life: read-out: t½ (converted).
Procedure: as §1

The nature of series [4]: Pharmacokinetics of levorphanol or levorphanol PABA carbamate, monkeys (Example 45). Particulars: levorphanol in plasma after oral levorphanol, 5 mg free base equivalent/kg; for half-life: read-out: t½ (converted). The format is in vivo.
Procedure: as §1
Series [5] is described as follows: Pharmacokinetics of nalbuphine or nalbuphine PABA carbamate, rats (Example 42). Particulars: for half-life: read-out: t½ (converted). The format is in vivo, Wistar rats.
Procedure: Test substances (nalbuphine at 3 mg nalbuphine free base equivalents/kg or nalbuphine para amino benzoic acid carbamate at 3 mg nalbuphine free base equivalents/kg) were administered by oral gavage to groups of male Wistar rats in a parallel group study design.
Blood samples were taken at various times after administration and submitted to analysis for the parent drug and pro-drug using a validated LC-MS-MS assay. Pharmacokinetic parameters derived from the plasma analytical data were determined using Win Nonlin.
Setting [6] is: dextrorphan in plasma after oral dextrorphan, 5 mg free base equivalents/kg, male cynomolgus monkeys, single animal.
The mark [7] stands for this setting: dextrorphan in plasma after oral dextrorphan, 5 mg free base equivalents/kg, female dogs, single animal.
Where [8] appears, read: male cynomolgus monkeys, single animal.
[9] abbreviates: male, cynomolgus monkey, plasma, po, 5 mg levorphanol free base equivalents/kg, Mean.
Setting [10] is: male, cynomolgus monkey, plasma, po, 5 mg levorphanol free base equivalents/kg, single animal.
Where [11] appears, read: nalbuphine PABA carbamate in plasma after oral p-aminobenzoic acid carbamate prodrug, 3 mg nalbuphine equivs/kg, male rats, single animal.
Where [12] appears, read: nalbuphine in plasma after oral nalbuphine, 3 mg free base equivalents/kg, male rats, single animal.

“And” between values parts separate entries of the source, which are not always exact repeats. Identical values can stand only once. Marks after values point to notes of the source that are not given here.

A word on the Cmax: it is the peak of the concentration-time curve. One may read the Tmax as the time from dosing to the highest level. Usually AUC stands for the area under the concentration-time curve, a measure of exposure. Broadly, the t½ is how long it takes for the measured level to halve.

As to `CN1CC[C@@]23CCCC[C@@H]2[C@@H]1Cc1ccc(O)cc13` [dextrorphan], the “T>50%Cmax” value in series [1] (dextrorphan in plasma after oral dextrorphan, 5 mg free base equivalents/kg, male cynomolgus monkeys, Mean) is 3.5 h; in series [1] (setting [6]), 3.7 h and 3.5 h and 4.5 h and 2.5 h and 3.3 h; in series [2] (dextrorphan in plasma after oral dextrorphan, 5 mg free base equivalents/kg, female dogs, Mean), 2.4 h; in series [2] (setting [7]) it was 2.9 h (2×) and 2.4 h and 2.2 h and 1.6 h. In addition, the maximum concentration (Cmax) was 3.0 ng/mL and 3.5 ng/mL and 5.5 ng/mL in series [1] (setting [6]); 3.9 ng/mL in series [1] (male, cynomolgus monkey, plasma, po, 5 mg dextrorphan free base equivalents/kg, dextrorphan in plasma after oral dextrorphan, 5 mg free base equivalents/kg, male cynomolgus monkeys, Mean, read-out: Cmax); 4.3 ng/mL in series [1] (male, cynomolgus monkey, plasma, po, 5 mg dextrorphan free base equivalents/kg, dextrorphan in plasma after oral dextrorphan, 5 mg free base equivalents/kg, male cynomolgus monkeys, single animal, read-out: Cmax); 4.2 ng/mL and 2.1 ng/mL and 3.8 ng/mL and 2.7 ng/mL in series [2] (setting [7]); 3.3 ng/mL in series [2] (female, beagle, dog, plasma, po, 5 mg dextrorphan free base equivalents/kg, dextrorphan in plasma after oral dextrorphan, 5 mg free base equivalents/kg, female dogs, Mean, read-out: Cmax); 3.6 ng/mL in series [2] (female, beagle, dog, plasma, po, 5 mg dextrorphan free base equivalents/kg, dextrorphan in plasma after oral dextrorphan, 5 mg free base equivalents/kg, female dogs, single animal, read-out: Cmax). Moreover, the time of peak concentration (Tmax) in series [1] (setting [6]) worked out at 1.0 h; in series [1] (male, cynomolgus monkey, plasma, po, 5 mg dextrorphan free base equivalents/kg, dextrorphan in plasma after oral dextrorphan, 5 mg free base equivalents/kg, male cynomolgus monkeys, Mean, read-out: Tmax) it was 1.6 h; in series [1] (male, cynomolgus monkey, plasma, po, 5 mg dextrorphan free base equivalents/kg, dextrorphan in plasma after oral dextrorphan, 5 mg free base equivalents/kg, male cynomolgus monkeys, single animal, read-out: Tmax), 2 h; in series [2] (setting [7]), 1.0 h; in series [2] (female, beagle, dog, plasma, po, 5 mg dextrorphan free base equivalents/kg, dextrorphan in plasma after oral dextrorphan, 5 mg free base equivalents/kg, female dogs, Mean, read-out: Tmax), 0.6 h; in series [2] (female, beagle, dog, plasma, po, 5 mg dextrorphan free base equivalents/kg, dextrorphan in plasma after oral dextrorphan, 5 mg free base equivalents/kg, female dogs, single animal, read-out: Tmax) it was 0.5 h. Also, the exposure (AUC) in series [1] (dextrorphan in plasma after oral dextrorphan, 5 mg free base equivalents/kg, male cynomolgus monkeys, single animal (animal 12: extrapolation of AUC data 39%)) is 14* ng · h/mL and 19 ng · h/mL (2×) and 13 ng · h/mL; in series [1] (male, cynomolgus monkey, plasma, po, 5 mg dextrorphan free base equivalents/kg, dextrorphan in plasma after oral dextrorphan, 5 mg free base equivalents/kg, male cynomolgus monkeys, Mean, read-out: AUC), 17 ng·h/mL; in series [1] (male, cynomolgus monkey, plasma, po, 5 mg dextrorphan free base equivalents/kg, read-out: AUC), 20 ng·h/mL; in series [2] (setting [7]), 18.9 ng·h/mL and 13.4 ng·h/mL and 8.3 ng·h/mL and 10.7 ng·h/mL and 12.4 ng·h/mL; in series [2] (female, beagle, dog, plasma, po, 5 mg dextrorphan free base equivalents/kg, dextrorphan in plasma after oral dextrorphan, 5 mg free base equivalents/kg, female dogs, Mean, read-out: AUC) it was 12.7 ng·h/mL. Moreover, the half-life is 2.1 h in series [1] (male, cynomolgus monkey, plasma, po, 5 mg dextrorphan free base equivalents/kg, dextrorphan in plasma after oral dextrorphan, 5 mg free base equivalents/kg, male cynomolgus monkeys, Mean); 2.3 h in series [1] (male, cynomolgus monkey, plasma, po, 5 mg dextrorphan free base equivalents/kg, dextrorphan in plasma after oral dextrorphan, 5 mg free base equivalents/kg, male cynomolgus monkeys, single animal); 3.1 h in series [2] (female, beagle, dog, plasma, po, 5 mg free base equivalents/kg, dextrorphan in plasma after oral dextrorphan, 5 mg free base equivalents/kg, female dogs, Mean, read-out: t½ (converted)). For the same compound, the “T>50% Cmax of dextrorphan” value in series [2] (dogs, oral) amounted to 2.4 h.
Consider `CN1CC[C@]23CCCC[C@H]2[C@H]1Cc1ccc(O)cc13` [levorphanol], for which the “T>50%Cmax of levorphanol” value in series [3] (dogs, oral 5 mg levorphanol free base equivalents/kg) was determined as 1.4 h. Also, the AUC in series [3] (female, beagle, dog, plasma, po, 5 mg levorphanol free base equivalents/kg, Mean, read-out: AUC) was 10 ng·h/mL; in series [3] (single animal), 5.8 ng·h/mL and 19 ng·h/mL and 16 ng·h/mL and 6.6 ng·h/mL and 2.8 ng·h/mL; in series [4] (setting [8]), 28 ng·h/mL and 34 ng·h/mL and 27 ng·h/mL; in series [4] (male, cynomolgus monkey, plasma, po, 5 mg levorphanol free base equivalents/kg, Mean, read-out: AUC), 28 ng·h/mL; in series [4] (male, cynomolgus monkey, plasma, po, 5 mg levorphanol free base equivalents/kg, single animal, read-out: AUC) it was 22 ng·h/mL. For the same compound, the peak concentration (Cmax) is 3.8 ng/mL in series [3] (female, beagle, dog, plasma, po, 5 mg levorphanol free base equivalents/kg, Mean, read-out: Cmax); 4.2 ng/mL and 3.2 ng/mL and 5.3 ng/mL and 4.3 ng/mL and 1.9 ng/mL in series [3] (single animal); 6.6 ng/mL and 8.2 ng/mL and 7.6 ng/mL in series [4] (setting [8]); 7.1 ng/mL in series [4] (male, cynomolgus monkey, plasma, po, 5 mg levorphanol free base equivalents/kg, Mean, read-out: Cmax); 6.2 ng/mL in series [4] (male, cynomolgus monkey, plasma, po, 5 mg levorphanol free base equivalents/kg, single animal, read-out: Cmax). Besides, the time to peak (Tmax) in series [3] (female, beagle, dog, plasma, po, 5 mg levorphanol free base equivalents/kg, Mean, read-out: Tmax) amounted to 0.6 h; in series [3] (female, beagle, dog, plasma, po, 5 mg levorphanol free base equivalents/kg, single animal, read-out: Tmax) it was 1 h; in series [3] (single animal), 0.5 h; in series [4] (setting [9]) it was 1.5 h; in series [4] (setting [10]) it was 2 h. Besides, the half-life in series [3] (female, beagle, dog, plasma, po, 5 mg levorphanol free base equivalents/kg, Mean) is 1.2 h; in series [3] (female, beagle, dog, plasma, po, 5 mg levorphanol free base equivalents/kg, single animal), 0.8 h; in series [4] (setting [9]), 1.7 h; in series [4] (setting [10]), 1.5 h. Moreover, the “T>50%Cmax” value in series [3] (Mean) was 1.4 h; in series [3] (single animal), 1.5 h and 1.3 h. Further, the t½ in series [4] (setting [8]) was 2.1 h and 1.6 h.
`O=C(Nc1ccc(C(=O)O)cc1)Oc1ccc2c3c1O[C@H]1[C@@H](O)CC[C@@]4(O)[C@@H](C2)N(CC2CCC2)CC[C@]314` [nalbuphine PABA carbamate, nalbuphine para amino benzoic acid carbamate]: the AUC in series [5] (male, Wistar, rat, plasma, po, 3 mg nalbuphine free base equivalents/kg, nalbuphine PABA carbamate in plasma after oral p-aminobenzoic acid carbamate prodrug, 3 mg nalbuphine equivs/kg, Mean, read-out: AUC) is 11 ng·h/mL; in series [5] (male, Wistar, rat, plasma, po, 3 mg nalbuphine free base equivalents/kg, nalbuphine PABA carbamate in plasma after oral p-aminobenzoic acid carbamate prodrug, 3 mg nalbuphine equivs/kg, single animal, read-out: AUC), 14 ng·h/mL; in series [5] (setting [11]), 9.4 ng·h/mL and 11 ng·h/mL. Also, the highest concentration (Cmax) is 12 ng/mL in series [5] (male, Wistar, rat, plasma, po, 3 mg nalbuphine free base equivalents/kg, nalbuphine PABA carbamate in plasma after oral p-aminobenzoic acid carbamate prodrug, 3 mg nalbuphine equivs/kg, Mean, read-out: Cmax); 16 ng/mL in series [5] (male, Wistar, rat, plasma, po, 3 mg nalbuphine free base equivalents/kg, nalbuphine PABA carbamate in plasma after oral p-aminobenzoic acid carbamate prodrug, 3 mg nalbuphine equivs/kg, single animal, read-out: Cmax); 11 ng/mL and 9.2 ng/mL in series [5] (setting [11]). For the same compound, the Tmax amounted to 0.25 h in series [5] (male, Wistar, rat, plasma, po, 3 mg nalbuphine free base equivalents/kg, nalbuphine PABA carbamate in plasma after oral p-aminobenzoic acid carbamate prodrug, 3 mg nalbuphine equivs/kg, Mean, read-out: Tmax) and 0.25 h in series [5] (male, Wistar, rat, plasma, po, 3 mg nalbuphine free base equivalents/kg, nalbuphine PABA carbamate in plasma after oral p-aminobenzoic acid carbamate prodrug, 3 mg nalbuphine equivs/kg, single animal, read-out: Tmax). The half-life in series [5] (male, Wistar, rat, plasma, po, 3 mg nalbuphine free base equivalents/kg, nalbuphine PABA carbamate in plasma after oral p-aminobenzoic acid carbamate prodrug, 3 mg nalbuphine equivs/kg, Mean) is 0.8 h. Also, in series [5] (setting [11]), the t½ was 0.5 h and 0.8 h and 1.2 h.
As for `Oc1ccc2c3c1O[C@H]1[C@@H](O)CC[C@@]4(O)[C@@H](C2)N(CC2CCC2)CC[C@]314` [nalbuphine], the area under the curve (AUC) is 1.2 ng·h/mL in series [5] (male, Wistar, rat, plasma, po, 3 mg nalbuphine free base equivalents/kg, nalbuphine in plasma after oral nalbuphine, 3 mg free base equivalents/kg, Mean, read-out: AUC); 1.8 ng·h/mL and 0.4 ng·h/mL and 1.3 ng·h/mL in series [5] (setting [12]). Further, the Cmax is 1 ng/mL in series [5] (male, Wistar, rat, plasma, po, 3 mg nalbuphine free base equivalents/kg, nalbuphine in plasma after oral nalbuphine, 3 mg free base equivalents/kg, Mean, read-out: Cmax); 1.4 ng/mL in series [5] (male, Wistar, rat, plasma, po, 3 mg nalbuphine free base equivalents/kg, nalbuphine in plasma after oral nalbuphine, 3 mg free base equivalents/kg, single animal, read-out: Cmax); 0.7 ng/mL and 0.8 ng/mL in series [5] (setting [12]). Further, the Tmax in series [5] (male, Wistar, rat, plasma, po, 3 mg nalbuphine free base equivalents/kg, nalbuphine in plasma after oral nalbuphine, 3 mg free base equivalents/kg, Mean, read-out: Tmax) came to 0.8 h; in series [5] (male, Wistar, rat, plasma, po, 3 mg nalbuphine free base equivalents/kg, nalbuphine in plasma after oral nalbuphine, 3 mg free base equivalents/kg, single animal, read-out: Tmax) it was 0.5 h; in series [5] (setting [12]) it was 1.0 h. Besides, the half-life in series [5] (male, Wistar, rat, plasma, po, 3 mg nalbuphine free base equivalents/kg, nalbuphine in plasma after oral nalbuphine, 3 mg free base equivalents/kg, Mean) was 1.4 h; in series [5] (male, Wistar, rat, plasma, po, 3 mg nalbuphine free base equivalents/kg, nalbuphine in plasma after oral nalbuphine, 3 mg free base equivalents/kg, single animal) it was 1.2 h. The “T>50%Cmax” value in series [5] (nalbuphine in plasma after oral nalbuphine, 3 mg free base equivalents/kg, male rats, Mean) was 1.3 h; in series [5] (setting [12]) it was 1.5 h and 0.7 h and 1.8 h. In addition, the t½ in series [5] (setting [12]) is recorded as 1.6 h.

Values taken from patent US20110190267A1, “PRODRUGS OF OPIOIDS AND USES THEREOF” (priority 2010, published 2011).
